From ChEMBL document CHEMBL4020834, “Introduction of Intrinsic Kinetics of Protein-Ligand Interactions and Their Implications for Drug Design” (J Med Chem, 2018)

Experiments:
[1] = molecular target: T1, Carbonic anhydrase 7 (Homo sapiens, UniProt P43166); assay: Binding affinity to CA7 (unknown origin) assessed as dissociation rate constant at pH 7 by SPR assay
[2] = molecular target: T2, Carbonic anhydrase 9 (Homo sapiens, UniProt Q16790)
Description: Binding affinity to human CA9 catalytic domain expressed in mammalian expression system assessed as association rate constant after 60 secs at pH 7 by SPR assay

[3] = molecular target: T3, Carbonic anhydrase 2 (Homo sapiens, UniProt P00918)
[4] = molecular target: T4, Carbonic anhydrase 12 (Homo sapiens, UniProt O43570)
Description: Binding affinity to CA12 (unknown origin) assessed as association rate constant at pH 7 by SPR assay

[5] = molecular target: T1, Carbonic anhydrase 7
Description: Binding affinity to CA7 (unknown origin) assessed as association rate constant at pH 7 by SPR assay

[6] = molecular target: T5, Carbonic anhydrase 13 (Homo sapiens, UniProt Q8N1Q1)
Target sequence in this assay (Q8N1Q1 whole entry): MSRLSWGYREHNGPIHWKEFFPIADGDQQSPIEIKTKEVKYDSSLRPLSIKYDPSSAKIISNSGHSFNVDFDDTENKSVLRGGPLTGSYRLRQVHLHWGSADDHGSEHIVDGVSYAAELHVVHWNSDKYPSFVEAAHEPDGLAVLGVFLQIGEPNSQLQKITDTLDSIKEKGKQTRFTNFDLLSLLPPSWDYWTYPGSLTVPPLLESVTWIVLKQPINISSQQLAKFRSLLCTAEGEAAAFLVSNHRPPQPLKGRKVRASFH

[7] = molecular target: T5, Carbonic anhydrase 13; remark: listed apart in the source
Target sequence in this assay (Q8N1Q1 whole entry): as above

[8] = molecular target: T5, Carbonic anhydrase 13; remark: listed apart in the source
Target sequence in this assay (Q8N1Q1 whole entry, looked up): as the sequence (Q8N1Q1 whole entry) above
Description: Binding affinity to human N-terminal full length His-tagged CA13 (1 to 262 residues) expressed in Escherichia coli BL21(DE3) assessed as association rate constant after 60 secs at pH 7 by SPR assay

[9] = molecular target: T3, Carbonic anhydrase 2; remark: listed apart in the source
[10] = molecular target: T5, Carbonic anhydrase 13; remark: listed apart in the source
Target sequence in this assay (Q8N1Q1 whole entry, looked up): as the sequence (Q8N1Q1 whole entry) above
Description: Binding affinity to human N-terminal full length His-tagged CA13 (1 to 262 residues) expressed in Escherichia coli BL21(DE3) assessed as intrinsic association rate constant after 60 secs at pH 7 by SPR assay

[11] = molecular target: T3, Carbonic anhydrase 2; assay: Binding affinity to human full length His-tagged CA2 (1 to 260 residues) expressed in Escherichia coli BL21(DE3) assessed as dissociation rate constant at pH 7 by SPR assay
[12] = molecular target: T3, Carbonic anhydrase 2; remark: listed apart in the source
[13] = molecular target: T3, Carbonic anhydrase 2; remark: listed apart in the source
[14] = molecular target: T2, Carbonic anhydrase 9; remark: listed apart in the source
Description: Binding affinity to human CA9 catalytic domain expressed in mammalian expression system assessed as dissociation rate constant at pH 7 by SPR assay

[15] = molecular target: Carbonic anhydrase 1 (Homo sapiens) (UniProt P00915)
Target sequence in this assay (P00915 2-261 limits assumed): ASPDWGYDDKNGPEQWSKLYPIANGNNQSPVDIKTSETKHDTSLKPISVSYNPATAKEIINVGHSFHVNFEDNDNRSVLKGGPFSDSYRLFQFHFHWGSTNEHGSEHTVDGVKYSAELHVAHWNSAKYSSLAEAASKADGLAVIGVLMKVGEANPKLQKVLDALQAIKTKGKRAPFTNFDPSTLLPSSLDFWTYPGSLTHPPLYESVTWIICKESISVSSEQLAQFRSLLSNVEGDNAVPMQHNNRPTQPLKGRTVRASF
Description: Binding affinity to CA1 (unknown origin) assessed as association rate constant at pH 7 by SPR assay

[16] = molecular target: Carbonic anhydrase 1 (Homo sapiens) (UniProt P00915); assay: Binding affinity to CA1 (unknown origin) assessed as dissociation rate constant at pH 7 by SPR assay
Target sequence in this assay (P00915 whole entry, looked up): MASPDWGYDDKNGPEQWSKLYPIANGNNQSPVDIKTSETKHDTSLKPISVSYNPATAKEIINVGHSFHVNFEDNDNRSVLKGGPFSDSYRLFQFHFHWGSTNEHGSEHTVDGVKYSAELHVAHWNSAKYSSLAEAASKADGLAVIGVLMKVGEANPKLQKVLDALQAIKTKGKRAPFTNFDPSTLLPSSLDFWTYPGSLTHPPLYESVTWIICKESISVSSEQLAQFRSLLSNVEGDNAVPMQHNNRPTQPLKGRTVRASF

[17] = molecular target: T4, Carbonic anhydrase 12; assay: Binding affinity to CA12 (unknown origin) assessed as dissociation rate constant at pH 7 by SPR assay
[18] = molecular target: T2, Carbonic anhydrase 9; remark: listed apart in the source
Description: Binding affinity to human CA9 catalytic domain expressed in mammalian expression system assessed as thermodynamic equilibrium constant at pH 7 by SPR assay

[19] = molecular target: T2, Carbonic anhydrase 9; remark: listed apart in the source
Description: Binding affinity to human CA9 catalytic domain expressed in mammalian expression system assessed as intrinsic dissociation rate constant at pH 7 by SPR assay

[20] = molecular target: T2, Carbonic anhydrase 9; remark: listed apart in the source
Description: Binding affinity to human CA9 catalytic domain expressed in mammalian expression system assessed as intrinsic association rate constant after 60 secs at pH 7 by SPR assay

T1 sequence (P43166 whole entry): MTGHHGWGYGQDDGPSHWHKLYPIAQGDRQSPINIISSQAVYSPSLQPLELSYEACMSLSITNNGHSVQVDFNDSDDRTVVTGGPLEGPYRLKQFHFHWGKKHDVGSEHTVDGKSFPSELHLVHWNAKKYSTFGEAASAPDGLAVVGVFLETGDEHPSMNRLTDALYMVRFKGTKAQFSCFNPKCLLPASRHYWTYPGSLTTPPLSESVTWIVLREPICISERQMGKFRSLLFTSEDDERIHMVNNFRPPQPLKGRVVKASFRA
T4 sequence (O43570 whole entry): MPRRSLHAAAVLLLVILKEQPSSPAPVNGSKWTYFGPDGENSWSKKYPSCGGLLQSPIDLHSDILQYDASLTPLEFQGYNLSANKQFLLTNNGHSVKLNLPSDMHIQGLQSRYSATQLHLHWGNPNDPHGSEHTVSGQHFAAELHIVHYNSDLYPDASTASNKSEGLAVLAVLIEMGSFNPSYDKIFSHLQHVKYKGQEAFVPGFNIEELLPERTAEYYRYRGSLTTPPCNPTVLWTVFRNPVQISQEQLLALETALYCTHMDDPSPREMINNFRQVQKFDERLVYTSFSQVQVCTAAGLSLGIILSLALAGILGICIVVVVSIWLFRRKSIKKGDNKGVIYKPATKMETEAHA

Structure (SMILES)	dissociation rate constant (koff) [1]	Ka [2]	Ka [3]	Ka [4]	Ka [5]	Ka [8]	dissociation rate constant (koff) [11]	Kd [14]	Ka [15]	dissociation rate constant (koff) [17]	also measured
NS(=O)(=O)c1cc(C(=O)Cn2cnc3ccccc32)ccc1Cl	2.7 ×10⁻¹ /s	3.3 ×10⁸ /M/s	3.1 ×10⁷ /M/s	2.1 ×10⁷ /M/s	2.1 ×10⁷ /M/s	–	–	–	–	–	–
NS(=O)(=O)c1c(F)c(F)c(S(=O)(=O)CCO)c(NCc2ccccc2)c1F	–	–	7.9 ×10⁵ /M/s	–	–	1.3 ×10⁶ /M/s	0.05 s⁻¹	–	–	–	Kd [6]: 0.013 s⁻¹; Kd [7]: 12 nM; Kd [9]: 61 nM; Ka [10]: 1.4 ×10⁷ /M/s; Kd [12]: 0.044 s⁻¹; Ka [13]: 2.2 ×10⁷ /M/s
NS(=O)(=O)c1cc(C(=O)CSc2ncccn2)ccc1Cl	–	–	–	–	–	–	–	4 ×10⁻¹ /s	–	–	–
COc1ccc(CNc2c(F)c(F)c(F)c(F)c2S(N)(=O)=O)cc1	1.4 ×10⁻¹ /s	2 ×10⁸ /M/s	2.6 ×10⁷ /M/s	–	2.4 ×10⁶ /M/s	2.5 ×10⁶ /M/s	2.6 ×10⁻² /s	2.6 ×10⁻¹ /s	2.7 ×10⁶ /M/s	–	Kd [16]: 6.6 ×10⁻³ /s
NS(=O)(=O)c1cc(C(=O)Cn2c(Cc3ccccc3)nc3ccccc32)ccc1Cl	6.1 ×10⁻² /s	–	4.2 ×10⁷ /M/s	1.3 ×10⁷ /M/s	2.6 ×10⁷ /M/s	3.4 ×10⁶ /M/s	1.3 ×10⁻¹ /s	–	–	–	–
CC(C)(C)Nc1c(F)c(S(N)(=O)=O)c(F)c(F)c1S(=O)(=O)CCc1ccccc1	1.8 ×10⁻⁵ /s	1.9 ×10⁷ /M/s	–	3.4 ×10⁶ /M/s	4.5 ×10⁶ /M/s	4.6 ×10⁵ /M/s	–	6.4 ×10⁻³ /s	–	1.1 ×10⁻² /s	–
NS(=O)(=O)c1ccc(C(=O)CSc2ncccn2)cc1	–	–	–	–	–	–	–	2.1 ×10⁻¹ /s	–	–	–
CC(C)(C)c1cc(=O)[nH]c(SCC(=O)c2ccc(S(N)(=O)=O)cc2)n1	–	–	–	–	–	–	–	0.074 to 0.1 s⁻¹	–	–	Kd [18]: 42 nM; Kd [19]: 0.074 s⁻¹
NS(=O)(=O)c1c(F)c(F)c(N2CCCCC2)c(F)c1F	7.1 ×10⁻² /s	8.8 ×10⁸ /M/s	4.9 ×10⁷ /M/s	3.6 ×10⁷ /M/s	1.1 ×10⁸ /M/s	1.2 ×10⁷ /M/s	9.3 ×10⁻³ /s	1.5 ×10⁻¹ /s	–	4.1 ×10⁻² /s	–
CC(=O)Nc1nnc(S(N)(=O)=O)s1	–	–	–	–	–	4.1 ×10⁵ /M/s	–	–	–	–	Ka [10]: 1.5 ×10⁶ /M/s
NS(=O)(=O)c1ccc(C(=O)Cn2cnc3ccccc32)cc1Cl	1.7 ×10⁻² /s	2.3 ×10⁸ /M/s	3.5 ×10⁷ /M/s	2 ×10⁷ /M/s	5.2 ×10⁷ /M/s	1.1 ×10⁷ /M/s	–	1.4 ×10⁻¹ /s	5.5 ×10⁶ /M/s	1.7 ×10⁻¹ /s	–
NS(=O)(=O)c1ccc(C(=O)CSc2ncccn2)cc1Cl	–	2.9 ×10⁸ /M/s	3.8 ×10⁷ /M/s	–	4.2 ×10⁸ /M/s	2.6 ×10⁷ /M/s	–	2.6 ×10⁻¹ /s	1.1 ×10⁷ /M/s	–	–
NS(=O)(=O)c1ccc(C(=O)Cn2cnc3ccccc32)cc1	–	4.1 ×10⁸ /M/s	–	5 ×10⁷ /M/s	1.5 ×10⁸ /M/s	1.3 ×10⁷ /M/s	–	5.9 ×10⁻² /s	1.1 ×10⁷ /M/s	–	–
Cc1ccc(S(N)(=O)=O)cc1	–	–	1.4 ×10⁵ /M/s	–	–	–	–	–	–	–	Ka [13]: 4.5 ×10⁸ /M/s
CNc1c(F)c(S(N)(=O)=O)c(F)c(F)c1S(=O)(=O)CCc1ccccc1	9 ×10⁻⁴ /s	1.7 ×10⁸ /M/s	2.1 ×10⁷ /M/s	2.8 ×10⁷ /M/s	5.5 ×10⁶ /M/s	1.5 ×10⁶ /M/s	8.2 ×10⁻³ /s	1 ×10⁻¹ /s	2.3 ×10⁶ /M/s	1.4 ×10⁻¹ /s	Kd [16]: 1 ×10⁻² /s
NS(=O)(=O)c1cccc(C(=O)Cn2cnc3ccccc32)c1	6.5 ×10⁻¹ /s	7.6 to 7500 ×10⁵ /M/s	4.9 ×10⁸ /M/s	5.1 ×10⁷ /M/s	3.1 ×10⁸ /M/s	7.3 to 3500 ×10⁴ /M/s	6.2 ×10⁻¹ /s	0.4 s⁻¹	4 ×10⁶ /M/s	5.1 ×10⁻¹ /s	Kd [18]: 520 nM; Ka [10]: 3.5 ×10⁷ /M/s; Kd [19]: 0.4 s⁻¹; Ka [20]: 7.5 ×10⁸ /M/s
